Results reported in paper PMC9616048, “Thermal proteome profiling reveals Haemonchus orphan protein HCO_011565 as a target of the nematocidal small molecule UMW-868” (Frontiers in Pharmacology, 2022).
Read-outs that look alike come from different tables or passages of the source.

Assays:
[1] = tested on: H. contortus fourth-stage larvae (L4s) development; experiment: Dose-response evaluation, L4 development; format: cell-based, Haemonchus contortus; conditions: for IC50: Haemonchus contortus, 168 h
Procedure: These evaluations were carried out to estimate the half-maximal inhibitory concentrations (IC50 values) for hit compounds against H. contortus xL3s. With reference to the two positive-control compounds (monepantel and moxidectin), IC50 values for compounds were estimated ([Preston et al., 2015]; [Taki et al., 2021a]) using two-fold serial dilution (in LB*; 9 points from 50 μM to 0.2 µM) in 96-well plates (cat. no. 3596; Corning) with larvae at a density of 300 H. contortus xL3s in 100 µl per well. Plates containing H. contortus xL3s were incubated at 38°C, 10% (v/v) CO2 and >90% relative humidity.
The motility of H. contortus xL3s and L4 development were measured following 168 h of incubation with compound ([Taki et al., 2021a]). Compound concentrations were log10-transformed and fitted using a variable slope four-parameter equation, constraining the highest value to 100% employing a least squares (ordinary) fit model using GraphPad Prism software (v.9.1.2). Compounds were tested by three independent experiments in triplicate. A one-way analysis of variance (ANOVA) with a Tukey’s multiple comparison test or an unpaired t-test was used to establish statistically significant differences in larval motility or development.

eggs of H. contortus = experiment: Egg hatch assay; format: cell-based; conditions: Haemonchus contortus, 48 h; read-out: Egg hatch inhibition (IC50 in µM)
Procedure: Compounds were also assessed for their effect on the hatching of eggs of H. contortus in vitro. To do this, eggs were isolated from the faeces from sheep with patent (30 day-) H. contortus infection by sucrose flotation ([Mes et al., 2007]). Eggs were suspended in H2O at a concentration of one egg per µl. The eggs were dispensed into wells (in triplicate; 100 eggs per well) and incubated with two-fold serial dilutions (9 points from 50 μM to 0.2 µM in H2O) of individual test or control compounds for 48 h at 27°C and >90% relative humidity; wells with no compound were also included. The numbers (percentages) of eggs from which first-stage larvae (L1s) hatched were counted using a light microscope (M80, Leica) at a 40-times magnification. With reference to positive-control compounds (i.e., monepantel and moxidectin), IC50 values of compounds were calculated.

HCO_011565 = experiment: Thermal proteome profiling (TPP); format: binding, Haemonchus contortus; conditions: UMW-868 at 50 μM, xL3 protein extract, 37–67°C, versus PBS control
Excerpt: (§1) TPP is an advanced, multiplexed mass-spectrometry method that allows the unbiased identification or detection of drug targets ([Savitski et al., 2014]; [Perrin et al., 2020]; [Mateus et al., 2022]); it relies on the thermostability of protein-drug interactions to identify potential target protein(s) through denaturation profiles (melting curves) upon heat treatment ([Childs et al., 2019]), and has proven capacity to specifically identify targets of anti-cancer drugs or drug candidates ([Savitski et al., 2014]; [Perrin et al., 2020]; [Mateus et al., 2022]). […] The protein concentration in the supernatant was measured using a BCA Protein Assay Kit (Thermo Fisher Scientific), adjusted to 2 mg/ml and divided into four 250 μl aliquots/replicates (each containing 500 μg protein). • (ii) Incubation with compound (UMW-868), and temperature profile: Of the four 250 µl aliquots of xL3 proteins, two (i.e., test-samples) were each incubated with an equal volume of compound (UMW-868 at 50 μM), and two (control-samples) with an equal volume of PBS (pH 7.0) for 30 min at 23°C. […]

HCO_014287 = experiment: Thermal proteome profiling (TPP); format: binding, Haemonchus contortus; conditions: UMW-868 at 50 μM, xL3 protein extract, 37–67°C, versus PBS control
Excerpt: as §1

SMILES: CCCc1ccc(-c2nc(-c3cccs3)no2)cc1 [UMW-868, 5-(4-propylphenyl)-3-(2-thienyl)-1,2,4-oxadiazole]
- IC50 ([1]; analog series, read-out: L4 development inhibition (IC50 in µM)): 50 µM
- IC50 ([1]; larval development inhibition, hit evaluation, read-out: IC50 (development)): 5.8 µM
- abnormal phenotypes in affected xL3s ([1]; dose-response evaluation): curved or evisceration
- IC50 (eggs of H. contortus): 6.2 µM
- thermostability of protein in presence of compound (HCO_011565): highest, statistically significant thermostability
- thermostability of protein in presence of compound (HCO_014287): highest, statistically significant thermostability
